Source: patent publication US20160046618A1, “Cyclopropyl Fused Thiazin-2-Amine Compounds as Beta-Secretase Inhibitors and Methods of Use” (AMGEN INC., priority 2014, published 2016)
Read-outs that look alike come from different tables or passages of the source.

Key:
[1] = system: Aβ40 in conditioned medium of cells stably expressing Amyloid Precursor Protein (APP); test: In vitro BACE-1 cell-based assay (Aβ40 sandwich ELISA); conditions: read-out: IC50 IP (μM) BACE1 cell
Method in brief: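 APP-stable cells, pre-cultured 24 h at 37° C in DMEM/10% FBS, were treated 24 h with compound in a 10-point series starting at 100 μM or 10 μM (0.1% DMSO final). Secreted Aβ40 in conditioned medium was measured by pAb40/biotin-6E10 sandwich ELISA with Europium time-resolved fluorescence; IC50 from percent inhibition versus concentration.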

Aβ 40 in rat brain = test: In vivo inhibition of beta-secretase: Aβ40 reduction in rat brain; conditions: 10 mpk, after 4 h
Method in brief: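 Rats were dosed by oral gavage at up to 100 mg/kg in 2% HPMC, 1% Tween80, pH 2.2, with vehicle-only controls. Supernatant Aβ40 was measured by ECL sandwich ELISA with biotinylated-4G8 capture and C-terminal Fab40 detection.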

human recombinant BACE2 = human recombinant BACE2 (Homo sapiens (Human), UniProt Q9Y5Z0); test: In vitro enzymatic BACE2 FRET assay; assay type: biochemical; conditions: read-out: IC50 IP (μM) BACE2 enzyme
human recombinant BACE2, sequence (Q9Y5Z0 63-518): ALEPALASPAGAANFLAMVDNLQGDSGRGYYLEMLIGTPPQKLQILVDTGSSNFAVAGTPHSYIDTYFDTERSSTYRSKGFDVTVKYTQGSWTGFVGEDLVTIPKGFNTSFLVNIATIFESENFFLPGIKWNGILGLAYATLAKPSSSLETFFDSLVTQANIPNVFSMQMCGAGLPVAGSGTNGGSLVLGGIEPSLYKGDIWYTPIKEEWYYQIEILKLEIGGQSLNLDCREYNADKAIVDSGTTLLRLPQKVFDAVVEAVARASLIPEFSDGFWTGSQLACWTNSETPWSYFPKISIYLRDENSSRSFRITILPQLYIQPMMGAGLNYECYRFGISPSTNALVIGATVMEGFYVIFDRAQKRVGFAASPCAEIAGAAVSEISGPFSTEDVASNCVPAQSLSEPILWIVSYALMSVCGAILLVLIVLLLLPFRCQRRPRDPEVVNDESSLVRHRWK
Method in brief: (§1)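 FRET cleavage assay using Ni-NTA-purified recombinant protease and 50 nM quenched peptide substrate, 1 h. Stopped by neutralising with Tris; fluorescence at 488/590 nm.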

human recombinant BACE1 = human recombinant BACE1 (Homo sapiens (Human), UniProt P56817); test: In vitro enzymatic BACE1 FRET assay; assay type: biochemical; conditions: read-out: IC50 IP (μM) BACE1 enzyme
human recombinant BACE1, sequence (P56817 46-501): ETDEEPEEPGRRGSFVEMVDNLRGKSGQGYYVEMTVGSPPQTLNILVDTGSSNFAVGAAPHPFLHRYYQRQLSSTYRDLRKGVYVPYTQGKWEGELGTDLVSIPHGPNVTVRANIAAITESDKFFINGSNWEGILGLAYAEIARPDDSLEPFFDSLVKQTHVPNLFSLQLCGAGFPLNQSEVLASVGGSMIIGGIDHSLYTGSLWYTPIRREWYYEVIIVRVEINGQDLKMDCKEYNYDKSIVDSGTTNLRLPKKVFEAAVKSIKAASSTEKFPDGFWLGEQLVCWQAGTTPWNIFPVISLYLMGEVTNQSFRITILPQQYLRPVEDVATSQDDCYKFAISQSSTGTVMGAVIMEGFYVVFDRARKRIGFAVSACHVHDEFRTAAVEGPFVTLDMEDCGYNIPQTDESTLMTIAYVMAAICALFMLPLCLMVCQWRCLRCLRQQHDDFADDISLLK
Method in brief: as §1

Recombinant Cat D = Recombinant Cat D (Homo sapiens (Human), UniProt P07339); test: In vitro enzymatic Cathepsin D (Cat D) FRET assay; assay type: biochemical; conditions: read-out: IC50 IP (μM) CatD
Recombinant Cat D, sequence (P07339 65-412): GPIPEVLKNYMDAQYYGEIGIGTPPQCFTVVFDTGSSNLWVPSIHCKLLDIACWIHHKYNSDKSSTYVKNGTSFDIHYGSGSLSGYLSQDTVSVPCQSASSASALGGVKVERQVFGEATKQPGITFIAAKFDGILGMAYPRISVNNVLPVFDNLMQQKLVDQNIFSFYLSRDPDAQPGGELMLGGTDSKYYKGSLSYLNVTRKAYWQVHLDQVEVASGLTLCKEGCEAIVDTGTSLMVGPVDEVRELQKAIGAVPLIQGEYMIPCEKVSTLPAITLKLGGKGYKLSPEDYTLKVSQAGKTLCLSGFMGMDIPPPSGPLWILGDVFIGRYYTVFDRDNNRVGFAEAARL
Method in brief: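 CHO-expressed enzyme; buffer 0.05 M citrate pH 3.5, 5 mM CHAPS, 10% DMSO final. Start with FRET substrate 20 nM, 1 h incubation, Tris stop (pH to neutral), fluorescence ex 500 nm/em 580 nm.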

Aβ 40 in rat CSF = test: In vivo inhibition of beta-secretase: Aβ40 reduction in rat CSF; conditions: 10 mpk, after 4 h
Method in brief: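 Male Sprague Dawley rats (200 g) dosed orally in 2% HPMC, 1% Tween80, pH 2.2, at 3, 10 or 30 mg/kg; CSF and brain taken 4 h later. Brain homogenate centrifuged at 355,000 g; Aβ40 measured by ECL sandwich ELISA (4G8 capture, Abeta40 C-terminal Fab detection), as % reduction versus vehicle controls.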

Row | SMILES | IC50 [1] | IC50 (human recombinant BACE2) | IC50 (human recombinant BACE1) | IC50 (Recombinant Cat D) | IC50 ([1]; BACE1 cell-based assay) | IC50 (human recombinant BACE2; BACE2 FRET enzyme assay) | IC50 (human recombinant BACE1; BACE1 FRET enzyme assay) | IC50 (Recombinant Cat D; Cathepsin D FRET enzyme assay) | % Aβ 40 reduction in rat brain at 10 mpk (Aβ 40 in rat brain) | % Aβ 40 reduction in rat CSF at 10 mpk (Aβ 40 in rat CSF)
1 | C#CCOc1cnc2c(Nc3cc(F)c(F)c([C@@]4(C)N=C(N)S[C@@]5(C#N)C[C@H]54)c3)ncnc2c1 [Example 921, (1S,5S,6S)-3-amino-5-(2,3-difluoro-5-((7-(2-propyn-1-yloxy)pyrido[3,2-d]pyrimidin-4-yl)amino)phenyl)-5-methyl-2-thia-4-azabicyclo[4.1.0]hept-3-ene-1-carbonitrile] | 0.0206 µM | 0.0627 µM | 0.00198 µM | 172 µM |  |  |  |  | 64% | 70%
2 | C#CCOc1cnc(C(=O)Nc2cc(F)c(F)c([C@@]3(CF)N=C(N)S[C@H]4C[C@H]43)c2)cn1 [Example 20, N-(3-((1S,5S,6S)-3-amino-5-(fluoromethyl)-2-thia-4-azabicyclo[4.1.0]hept-3-en-5-yl)-4,5-difluorophenyl)-5-(2-propyn-1-yloxy)-2-pyrazinecarboxamide] |  |  |  |  | 0.00064 µM | 0.0394 µM | 0.0006 µM | 47.1 µM | 76% | 80%
3 | COC[C@]12C[C@H]1[C@@](C)(c1cc(NC(=O)c3cnc(OCC(F)(F)F)cn3)ccc1F)N=C(N)S2 [Example 831, N-(3-((1S,5S,6S)-3-amino-1-(methoxymethyl)-5-methyl-2-thia-4-azabicyclo[4.1.0]hept-3-en-5-yl)-4-fluorophenyl)-5-(2,2,2-trifluoroethoxy)-2-pyrazinecarboxamide] | 0.00359 µM | 0.118 µM | 0.00299 µM | > 400 µM |  |  |  |  | 16% | 49%
4 | C#CCOc1cnc(C(=O)Nc2ccc(F)c([C@@]3(C)N=C(N)S[C@@]4(COC)C[C@H]43)c2)cn1 [Example 834, N-(3-((1S,5S,6S)-3-amino-1-(methoxymethyl)-5-methyl-2-thia-4-azabicyclo[4.1.0]hept-3-en-5-yl)-4-fluorophenyl)-5-(2-propyn-1-yloxy)-2-pyrazinecarboxamide] | 0.000489 µM | 0.0127 µM | 0.000404 µM | 318 µM |  |  |  |  | 83% | 83%
5 | C[C@]1(c2cc(Nc3ncnc4cc(C#N)cnc34)cc(F)c2F)N=C(N)S[C@@]2(C(F)F)C[C@@H]12 [Example 95, 4-((3-((1S,5S,6S)-3-amino-1-(difluoromethyl)-5-methyl-2-thia-4-azabicyclo[4.1.0]hept-3-en-5-yl)-4,5-difluorophenyl)amino)pyrido[3,2-d]pyrimidine-7-carbonitrile] |  |  |  |  | 0.0138 µM | 0.00837 µM | 0.00426 µM | 133 µM | 60% | 69%
6 | COC[C@]12C[C@H]1[C@@](C)(c1cc(NC(=O)c3ccc(OCC(F)(F)F)cn3)ccc1F)N=C(N)S2 [Example 698, N-(3-((1S,5S,6S)-3-amino-1-(methoxymethyl)-5-methyl-2-thia-4-azabicyclo[4.1.0]hept-3-en-5-yl)-4-fluorophenyl)-5-(2,2,2-trifluoroethoxy)-2-pyridinecarboxamide] | 0.0116 µM | 0.316 µM | 0.0086 µM | > 400 µM |  |  |  |  | −7% | 15%
7 | C[C@]1(c2cc(NC(=O)c3ccc(OCC(F)(F)F)cn3)ccc2F)N=C(N)S[C@@]2(CF)C[C@H]21 [Example 697, N-(3-((1S,5S,6S)-3-amino-1-(fluoromethyl)-5-methyl-2-thia-4-azabicyclo[4.1.0]hept-3-en-5-yl)-4-fluorophenyl)-5-(2,2,2-trifluoroethoxy)-2-pyridinecarboxamide] | 0.0315 µM | 0.338 µM | 0.00629 µM | > 400 µM |  |  |  |  | 13% | 35%
8 | C[C@]1(c2cc(NC(=O)c3cnc(OCC(F)(F)F)cn3)cc(F)c2F)N=C(N)S[C@@]2(CF)C[C@H]21 [Example 814, N-(3-((1S,5S,6S)-3-amino-1-(fluoromethyl)-5-methyl-2-thia-4-azabicyclo[4.1.0]hept-3-en-5-yl)-4,5-difluorophenyl)-5-(2,2,2-trifluoroethoxy)-2-pyrazinecarboxamide] | 0.00608 µM | 0.0601 µM | 0.000829 µM | 595 µM |  |  |  |  | 68% | 76%

Continued, in another order:

Row | IC50 [1] | IC50 (human recombinant BACE2) | IC50 (human recombinant BACE1) | IC50 (Recombinant Cat D) | IC50 ([1]; BACE1 cell-based assay) | IC50 (human recombinant BACE2; BACE2 FRET enzyme assay) | IC50 (human recombinant BACE1; BACE1 FRET enzyme assay) | IC50 (Recombinant Cat D; Cathepsin D FRET enzyme assay) | SMILES | % Aβ 40 reduction in rat brain at 10 mpk (Aβ 40 in rat brain) | % Aβ 40 reduction in rat CSF at 10 mpk (Aβ 40 in rat CSF)
9 | 0.0137 µM | 0.0163 µM | 0.00613 µM | 145 µM |  |  |  |  | C[C@]1(c2cc(Nc3ncnc4cc(C#N)cnc34)cc(F)c2F)N=C(N)S[C@@]2(CF)C[C@H]21 [Example 801, 4-((3-((1S,5S,6S)-3-amino-1-(fluoromethyl)-5-methyl-2-thia-4-azabicyclo[4.1.0]hept-3-en-5-yl)-4,5-difluorophenyl)amino)pyrido[3,2-d]pyrimidine-7-carbonitrile] | 68% | 74%
10 |  |  |  |  | 0.0135 µM | 0.27 µM | 0.00538 µM | > 400 µM | NC1=N[C@](CF)(c2cc(Nc3nccc4nc(OCc5ncco5)cnc34)ccc2F)C2C[C@@H]2S1 (stereo in doubt) [Example 56, N-(3-((1S,5S,6S)-3-amino-5-(fluoromethyl)-2-thia-4-azabicyclo[4.1.0]hept-3-en-5-yl)-4-fluorophenyl)-2-(1,3-oxazol-2-ylmethoxy)pyrido[3,4-b]pyrazin-5-amine] | 32% | 50%
11 | 0.00497 µM | 0.0334 µM | 0.000992 µM | 310 µM |  |  |  |  | C[C@]1(c2cc(Nc3nccc4nc(OCc5ncco5)cnc34)cc(F)c2F)N=C(N)S[C@@]2(CF)C[C@H]21 [Example 802, N-(3-((1S,5S,6S)-3-amino-1-(fluoromethyl)-5-methyl-2-thia-4-azabicyclo[4.1.0]hept-3-en-5-yl)-4,5-difluorophenyl)-2-(1,3-oxazol-2-ylmethoxy)pyrido[3,4-b]pyrazin-5-amine] | 50% | 59%
12 | 0.0207 µM | 0.263 µM | 0.000771 µM | 810 µM |  |  |  |  | C#C[C@H](C)Oc1cnc2c(Nc3ccc(F)c([C@@]4(C)N=C(N)S[C@@]5(CF)C[C@H]54)c3)nccc2n1 [Example 827, N-(3-((1S,5S,6S)-3-amino-1-(fluoromethyl)-5-methyl-2-thia-4-azabicyclo[4.1.0]hept-3-en-5-yl)-4-fluorophenyl)-2-(((1S)-1-methyl-2-propyn-1-yl)oxy)pyrido[3,4-b]pyrazin-5-amine] | 19% | 41%
13 | 0.00111 µM | 0.0383 µM | 0.000866 µM | 127 µM |  |  |  |  | C[C@]1(c2cc(Nc3ncnc4cc(OCc5ncco5)cnc34)cc(F)c2F)N=C(N)S[C@@]2(CF)C[C@H]21 [Example 808, N-(3-((1S,5S,6S)-3-amino-1-(fluoromethyl)-5-methyl-2-thia-4-azabicyclo[4.1.0]hept-3-en-5-yl)-4,5-difluorophenyl)-7-(1,3-oxazol-2-ylmethoxy)pyrido[3,2-d]pyrimidin-4-amine] | 26% | 44%
14 |  |  |  |  | 0.0084 µM | 0.00749 µM | 0.00631 µM | 1760 µM | NC1=N[C@](CF)(c2cc(Nc3ncnc4cc(Cl)cnc34)ccc2F)[C@@H]2C[C@]2(CO)S1 [Example 49, ((1S,5S,6S)-3-amino-5-(5-((7-chloropyrido[3,2-d]pyrimidin-4-yl)amino)-2-fluorophenyl)-5-(fluoromethyl)-2-thia-4-azabicyclo[4.1.0]hept-3-en-1-yl)methanol] | 14% | 24%
15 |  |  |  |  | 0.00288 µM | 0.00363 µM | 0.00386 µM | 213 µM | COC[C@]12C[C@H]1[C@@](C)(c1cc(Nc3ncnc4cc(Cl)cnc34)cc(F)c1F)N=C(N)S2 [Example 35, N-(3-((1S,5S,6S)-3-amino-1-(methoxymethyl)-5-methyl-2-thia-4-azabicyclo[4.1.0]hept-3-en-5-yl)-4,5-difluorophenyl)-7-chloropyrido[3,2-d]pyrimidin-4-amine] | 50% | 63%
